Results published in patent US20110268722A1, “COMBINATION THERAPIES WITH MITOCHONDRIAL-TARGETED ANTI-TUMOR AGENTS” (priority 2010, published 2011).
Where a SMILES comes first, the peptide text is derived from it. The star is where a group is joined. Cbz = O=C(OCc1ccccc1)*; CH2F = FC*

What was measured:
U87 cells [1] = experiment: MTT viability with inhibitors of phagosome formation plus G-TPP; type: cell-based, human; conditions: inhibitor 1 hour then G-TPP, MTT after 16 hours
Method: FIG. 11A is a graph of the percent viability of U87 cells following incubation with inhibitors of phagosome formation, bafilomycin A (BF) or 3-methyladenine (3-MA), for 1 hour and treatment with G-TPP. MTT analysis was performed after 16 hours with MTT. The mean data±standard deviation are shown.
(§1) For autophagy, glioblastoma cells were transfected with an LC3-GFP cDNA by FuGENE HD (Roche), treated with vehicle, nontargeted 17-AAG, or G-TPP, and analyzed by fluorescence microscopy. […] An average of 200 cells was counted in 4-6 independent fields per condition. In some experiments, G-TPP-treated cells were incubated with pharmacologic inhibitors of autophagy, BF, or 3-MA, and analyzed after 16 hours for modulation of cell viability by MTT.

LN229 cells [2] = experiment: Electron microscopy of treated cells; type: cell-based, human; conditions: 5-10 μM, 16 hours
Method: Subconfluent monolayers of LN229 cells were incubated with PBS, pH 7.2, or G-TPP or nontargeted 17-AAG (5-10 μM) for 16 hours at 37° C. Cells were washed briefly in 0.1 M PBS, pH 7.4, fixed in buffered 2.5% glutaraldehyde (GA) with or without 4% formaldehyde (FA) or for 30 minutes at 22° C., post-fixed in 1% osmium tetroxide, and processed by standard methods for epoxy embedding. In some experiments, cells were fixed in buffered 3% FA with 0.1% GA for 25 minutes at 22° C., washed, quenched with NH4Cl, and dehydrated for embedding in LR White resin. Ultrathin sections on nickel grids were treated for heat-induced antigen retrieval and blocked with buffered 1% BSA, as described in published protocols (Yamashita et al., Methods Mol. Biol. 657:237-248, 2010). Samples were incubated with an antibody to COX IV, followed by a colloidal gold-conjugated (12 nm) secondary antibody of appropriate specificity (Jackson ImmunoResearch). Grids were briefly post-fixed with 2% GA, washed, air dried, and then exposed to osmium tetroxide vapors for 20 minutes. Ultrathin sections were stained with uranyl acetate and lead citrate before examination in a Philips CM10 transmission electron microscope.

[3] = tested on: FLIP promoter in U251 cells; experiment: FLIP luciferase promoter activity; type: cell-based, human
Method: FIG. 13A is a graph showing the RLU of U251 cells from luciferase produced from a FLIP promoter following no treatment or treatment with two different concentrations of G-TPP. The luciferase data are normalized to β-galactosidase. The mean data±standard deviation are shown.
(§2) FIG. 14B is a graph showing the RLU of U251 cells from luciferase produced from a NF-κB or cFLIP promoter following treatment with non-targeted 17-AAG. Cells were analyzed after 9 hours for luciferase activity. The mean data±SEM of replicates of a representative experiment are shown.
(§3) Tumor cell types were transfected with NF-κB (Mehrota et al., Cancer Cell 17:53-64, 2010), p53, or FLIP luciferase promoter construct (pGL3-FLIP1500; Addgene #16016) using FuGENE HD. After 24 hours at 37° C., cells were stimulated with G-TPP or 17-AAG (0-10 μM) for 6 hours, harvested, and analyzed for β-galactosidase-normalized luciferase activity in a luminometer, as described (Mehrota et al., Cancer Cell 17:53-64, 2010). In some experiments, β-galactosidase-normalized NF-κB promoter activity was examined after cell stimulation with TNF-α, as described (Mehrota et al., Cancer Cell 17:53-64, 2010).

[4] = tested on: NF-κB promoter in U251 cells; experiment: NF-κB luciferase promoter activity; type: cell-based, human; conditions: U251, luciferase normalized to β-galactosidase
Method: FIG. 12A is a graph showing the relative light units (RLU) of U251 cells from luciferase produced from a NF-κB promoter following no treatment or treatment with G-TPP or TRAIL. The luciferase data are normalized to β-galactosidase. TRAIL (800 ng/mL) was used as a control. The mean data±standard deviation are shown.
FIG. 12B is a graph showing the RLU of U251 cells from luciferase produced from a NF-κB promoter following no treatment or treatment with G-TPP in the presence or absence of TNF-α. The luciferase data are normalized to β-galactosidase. The mean data±standard deviation are shown.
as §2, §3

[5] = tested on: U87-luc glioblastoma cells; experiment: Orthotopic glioblastoma tumor model, bioluminescence imaging; type: in vivo; conditions: CB17 SCID/beige mice; TRAIL 2 μg intracranially, TPP intraperitoneally
Method: Since Gamitrinib-TPP dramatically sensitizes cancer cells in vitro it was of highest interest to assess efficacy in vivo. To this end, efficacy of TRAIL, TPP, or the combination of both was determined in an orthotopic glioblastoma tumor model. Twenty nude mice were intracranially injected with U87-luc glioblastoma cells. U87 glioblastoma cells stably transfected with a luciferase expression plasmid (U87-Luc) were suspended in sterile PBS, pH 7.2, and stereotactically implanted (1×10^5) in the right cerebral striatum of immunocompromised CB17 SCID/beige female mice (Charles River Laboratories). Treatment group 1 received only vehicle solutions. Group 2 received TRAIL intracranially (2 μg) and carrier solution intraperitoneally. Group 3 received PBS intracranially and TPP intraperitoneally in a carrier solution consisting of 20% Cremophor in PBS. Group 4 received both TRAIL and TPP. Tumor growth was assessed after each intracranial injection by application of 58 mg/kg D-luciferin and subsequent bioluminescence imaging using a Xenogen In Vivo Imaging System. […]
Five days after injection of U87-luc glioblastoma cells, the mice were scanned, quantified and according to signal strength randomized into 4 treatment groups (Group 1: Vehicle, Group 2: TRAIL, Group 3: TPP, Group 4: TRAIL+TPP) (FIGS. 5A, 6A).

U251 cells [6] = experiment: Annexin V / propidium iodide flow cytometry; type: cell-based, human; conditions: 5 μM TPP-GA, 25 ng/ml TRAIL, alone or combined
U87 cells [7] = experiment: LC3 immunoblot (autophagy); type: cell-based, human; conditions: over time
Method: FIG. 10A is an immunoblot of lysates from U87 cells following treatment with G-TPP for the indicated periods of time. The position of the unmodified (I) and lipidated form (II) form of LC3 are indicated.
(§4) The various cell types were seeded in triplicate onto 96-well plates at 2×10^3 cells/well, treated with vehicle, G-TPP, or nontargeted 17-AAG (0-20 μM) for up to 24 hours, and quantified for metabolic activity by a 3(4,5-dimethyl-thyazoyl-2-yl)2,5 diphenyltetrazolium bromide (MTT) colorimetric assay with absorbance at 405 nm, as described in Plescia et al. (Cancer Cell 7:457-468, 2005). Changes in protein expression under the various combination regimens were determined by immunoblotting.

LN229 cells [8] = experiment: Western blotting of caspase, BID and PARP cleavage; type: cell-based, human; conditions: 5 μM TPP-GA, 200 ng/ml TRAIL, alone or combined, 16 hours
Method: (§5) Western blotting was employed to elucidate the proteolytic mechanism in TRAIL and TRAIL+Gamitrinib-induced apoptosis. Since Gamitrinibs augment TRAIL-induced apoptosis, the activation/cleavage of caspases-3, -7, -8, -9, BH3 interacting domain death agonist (BID), and Poly-ADP-ribose polymerase (PARP) was examined. […] The time course of activation/cleavage of caspases-3, -7, -8, -9, BID, and PARP over 24 hours was also examined following treatment of LN229 (FIG. 3C) or U251 (FIG. 3D) cells with 5 μM TPP-GA and 200 or 20 ng/ml TRAIL, respectively.

U251 cells [9] = experiment: Western blotting of caspase, BID and PARP cleavage; type: cell-based, human; conditions: 5 μM TPP-GA, 20 ng/ml TRAIL, alone or combined, 16 hours
Method: as §5

[10] = tested on: RelB, Bcl-3 mRNA in LN229 cells; experiment: RelB and Bcl-3 mRNA expression; type: cell-based, human
From the text: FIG. 13C is a Northern blot showing the PCR-amplified expression of RelB, Bcl-3, and GAPDH mRNA in LN229 cells following treatment with G-TPP.

U251 cells [11] = experiment: LC3-GFP fluorescence microscopy (autophagy); type: cell-based, human; conditions: 16 hours
Method: FIG. 10B is a fluorescence photomicrograph and a graph of the percentage of fluorescent U251 cells following transfection of U251 cells with LC3-GFP and treatment for 16 hours with vehicle (left photomicrograph) or G-TPP (right photomicrograph).
as §1

[12] = tested on: p53 promoter in MCF-7 cells; experiment: p53 luciferase promoter activity; type: cell-based, human; conditions: MCF-7, after 5 hours
Method: FIG. 14A is a graph showing the RLU of MCF-7 cells from luciferase produced from a p53 promoter following no treatment or treatment with G-TPP, Eto 10, Eto 10 and G-TPP, Eto 20, and Eto 20 and G-TPP. Cells were analyzed after 5 hours for β-galactosidase-normalized p53 luciferase promoter activity.
as §3

FLIP in LN229 cells = experiment: FLIP protein immunoblot; type: cell-based, human
Method: FIG. 13B is two immunoblots lysate from LN229 cells following treatment with G-TPP. The top immunoblot is a dose response experiment. The bottom immunoblot is a time-course experiment. FLIP (L) is the FLIP long form. FLIP(S) is the FLIP short form.
as §4

cancer cells = experiment: Pan-caspase inhibitor effect on TRAIL+Gamitrinib apoptosis and caspase cleavage; type: cell-based
Method: as §5

Compound: Cn1cnc(N)c2ncnc1-2 [3-methyladenine]
- glioblastoma cell death induced by suboptimal concentrations of G-TPP (MTT) (U87 cells [1]): enhanced glioblastoma cell death

Compound: C=CCNC1=C2C[C@@H](C)C[C@H](OC)[C@H](O)[C@@H](C)/C=C(\C)[C@H](OC(N)=O)[C@@H](OC)/C=C\C=C(/C)C(=O)NC(=CC1=O)C2=O [Gamitrinib 17-AAG, 17-allylamino demethoxygeldanamycin, reference compound]
- cell ultrastructure (electron microscopy) (LN229 cells [2]): unremarkable
- FLIP promoter activity [3]: no effect
- NF-κB-mediated gene expression, constitutive [4]: no effect

Compound: CO[C@H]1/C=C\C=C(/C)C(=O)NC2=CC(=O)C(NCCCCCC[P+](c3ccccc3)(c3ccccc3)c3ccccc3)=C(C[C@@H](C)C[C@H](OC)[C@H](O)[C@@H](C)/C=C(\C)[C@@H]1OC(N)=O)C2=O [Gamitrinib-TPP, triphenylphosphonium geldanamycin]
- tumor size (bioluminescence) [5]: did not show any significant reduction in tumor size
- cell ultrastructure (electron microscopy) (LN229 cells [2]): became completely filled with cytoplasmic vacuoles
- FLIP promoter activity [3]: rapid downregulation
- Annexin V positive and PI-negative tumor cells (apoptosis) (U251 cells [6]): no significant effects
- LC3 lipidated form (immunoblot) (U87 cells [7]): accumulated a lapidated form of the ubiquitin-like protein, light chain 3 (LC3)
- cleavage of caspase-3 or -7 (LN229 cells [8]): did not or only weakly induce cleavage of caspase-3 or -7
- cleavage of caspase-3 or -7 (U251 cells [9]): did not or only weakly induce cleavage of caspase-3 or -7
- RelB and bcl-3 mRNA [10]: rapid downregulation
- LC3-GFP fluorescence pattern (U251 cells [11]): exhibited a punctate fluorescence pattern
- etoposide-mediated induction of p53 luciferase promoter activity [12]: unaffected
- NF-κB-mediated gene expression after stimulation with TNF-α [4]: complete ablation
- NF-κB-mediated gene expression, constitutive [4]: complete ablation
- FLIP protein expression (FLIP in LN229 cells): rapid downregulation

Compound: CO/C1=C\C(C)=C\[C@@H](C)[C@@H](O)[C@@H](C)C/C(C)=C/C=C/[C@H](OC)[C@@H]([C@@H](C)[C@@H](O)[C@H](C)[C@@]2(O)C[C@@H](O)[C@H](C)[C@@H](C(C)C)O2)OC1=O [bafilomycin A]
- glioblastoma cell death induced by suboptimal concentrations of G-TPP (MTT) (U87 cells [1]): enhanced glioblastoma cell death

Compound: COC(=O)CC(NC(=O)C(C)NC(=O)C(NC(=O)OCc1ccccc1)C(C)C)C(=O)CF (stereo not drawn) [zVAD-fmk, benzyloxycarbonyl-Val-Ala-Asp(OMe)-fluoromethyl-ketone] (Cbz-Val-Ala-Asp(OMe)-CH2F; configuration not given here)
- effect on cleavage of caspases induced by the combination of TRAIL and TPP-GA (cancer cells; Western blotting): abolished cleavage of caspases
- effect on TRAIL+Gamitrinib mediated apoptosis (cancer cells; pan-caspase inhibitor added to the combination): significantly attenuated

Compound: TRAIL: Recombinant TRAIL obtained from Peprotech; death receptor agonist
- tumor size (bioluminescence) [5]: did not show any significant reduction in tumor size
- Annexin V positive and PI-negative tumor cells (apoptosis) (U251 cells [6]): no significant effects
- cleavage of caspase-3 or -7 (LN229 cells [8]): did not or only weakly induce cleavage of caspase-3 or -7
- cleavage of caspase-3 or -7 (U251 cells [9]): did not or only weakly induce cleavage of caspase-3 or -7
